Experiment [1] relates to Leptosphaeria nodorum (LEPTNO). Description: In vitro fungitoxicity assay against Leptosphaeria nodorum in copper-minus and copper-plus liquid medium (growth inhibition, light scattering). The conditions noted are these: Parastagonospora nodorum; compound 0.05 μg/mL, copper-minus medium, 72 h at 25° C.; read-out: LEPTNO % Inhn. Minus Copper Observed. The class given is cell-based. The method, then: In vitro fungitoxicity assays against Leptosphaeria nodorum (LEPTNO) were conducted using the liquid growth medium described by Coursen and Sisler (American Journal of Botany 1960, 47, 541-549) except that copper micronutrient, normally included as CuSO4, was omitted. The medium, termed “copper-minus”, was prepared by dissolving 10 g glucose, 1.5 g K2HPO4, 2 g KH2PO4 and 1 g (NH4)2SO4 in 1 liter of deionized water and treating the solution with 0.5 g Chelex 100 resin (Bio-Rad Analytical grade, 50-100 mesh, sodium form, cat#142-2822) by stirring at room temperature for 1 h. MgSO4.7H2O (0.5 g) was added, and stirring was continued for a further hour. Trace elements (minus CuSO4), and vitamins described by Coursen and Sisler were added from concentrated stock solutions and the entire medium was sterilized by filtration. Medium containing copper was prepared by adding CuCl2.2H2O to the copper-minus medium at 20 μM. […]
LEPTNO was grown on potato dextrose agar in 9 cm diameter petri dishes for 7 days. […] Microtiter plates were inoculated with 100 μL of this spore suspension and the plates incubated at 25° C. for 72 h before assessing fungal growth by measuring light scattering in a NepheloStar plate reader. Growth inhibition was determined by comparing growth in the presence of test compound with growth in control wells lacking test compound. […]

Another experiment relates to Phytophthora capsici. The experiment is described as follows: In vitro fungitoxicity assay against Phytophthora capsici in copper-minus AS and copper-plus AS medium. The class given is cell-based. The conditions noted are these: CuCl2 50 uM without any test compound, across experiments. The procedure:
In vitro fungitoxicity assays against Phytophthora capsici were conducted using the asparagine-sucrose (AS) medium described in Canadian Journal of Microbiology 1961, 7, 15-25, except that copper micronutrient, normally included as CuSO4, was omitted. The medium, termed “copper-minus AS”, was prepared by dissolving 2 g asparagine, 0.43 g KH2PO4, 0.3 g K2HPO4, 0.4 mL of a 0.5 mg/mL thiamine-HCl solution and 15 g sucrose in 1 liter of deionized water and treating the solution with 0.5 g Chelex 100 resin (Bio-Rad Analytical grade, 50-100 mesh, sodium form, cat#142-2822) by stirring at room temperature for 1 h. The pH was adjusted to 6.4, then MgSO4.7H2O (100 μg/mL), FeSO4.7H2O (1 μg/mL), CaCl2 (50 μg/mL), ZnSO4.7H2O (1 μg/mL), NaMoO4.2H2O (0.2 μg/mL) and MnCl2.4H2O (0.2 μg/mL) were added and the entire medium was sterilized by filtration. […]
Phytophthora capsici was grown on petri plates, 9 cm in diameter, containing 15 mL V-8 agar, pH 7.0, containing 200 mL V-8 juice, 4 g CaCO3, and 20 g agar per liter. […] Microtiter plates were inoculated with 100 μL of spore suspension and incubated at 25° C. for 48 h before assessing fungal growth by measuring light scattering in a NepheloStar plate reader. Growth inhibition was determined by comparing growth in the presence of test compound with growth in control wells lacking test compound. […]

The results in this text go back to patent publication US8455394B2 (priority 2009, dated 2013).

Each structure is given as a SMILES string.

Regarding `O=C(N/N=C/c1cccc(F)c1O)c1ccccc1` [Compound 1], in experiment [1], the inhibition of growth at 0.05 µg/mL came out at 4.4%.
As to `O.O.[Cl][Cu][Cl]` [CuCl2, CuCl2.2H2O], in the experiment on Phytophthora capsici, the “% Inhn (copper chloride alone; printed in column Minus copper Observed)” value was 4.5 ± 7.9%.
